Key:
[1] = Microsomal stability, human; format: in vitro ADME; conditions: human liver microsomes, 3 μM compound, 1 hour, 37° C.
Protocol: (§1) A 10 mM stock solution of compound in DMSO was diluted 1000 fold in a 182 mM phosphate buffer pH7.4 in a 96 deep well plate (Greiner, Cat no. 780285) and pre-incubated at 37° C.
(§2) 40 μL of deionised water was added to a well of a polypropylene Matrix 2D barcode labelled storage tube (Thermo Scientific) and pre-incubated at 37° C.
(§3) A Glucose-6-phophate-dehydrogenase (G6PDH) working stock solution was prepared in 182 mM phosphate buffer pH7.4 and placed on ice before use. A co-factor containing MgCl2, glucose-6-phosphate and NADP+ was prepared in deionised water and placed on ice before use. […]
(§4) These plates were sealed with sealing mats (MA96RD-04S) of www.kinesis.co.uk and samples were measured at room temperature on LCMS (ZQ 1525 from Waters) under optimized conditions using Quanoptimize to determine the appropriate mass of the parent molecule.
(§5) The samples were analyzed on LCMS with a flow rate of 1 mL/min. […]
(§6) Peak area from the parent compound at time 0 was considered to be 100% remaining. The percentage remaining after 1 hour incubation was calculated from time 0 and was calculated as the percentage remaining. […]
(§7) The data on microsomal stability are expressed as a percentage of the total amount of compound remaining after 60 minutes.

[2] = test system: collagen induced arthritis; assay: Rat CIA (collagen induced arthritis) model; format: in vivo
Protocol: Completed Freund's adjuvant (CFA) and incomplete Freund's adjuvant (IFA) were purchased from Difco. Bovine collagen type […] (CII), lipopolysaccharide (LPS), and Enbrel were obtained from Chondrex (Isle d'Abeau, France); Sigma (P4252, L'Isle d'Abeau, France), Whyett (25 mg injectable syringe, France) Acros Organics (Palo Alto, Calif.), respectively. All other reagents used were of reagent grade and all solvents were of analytical grade.
Dark Agouti rats (male, 7-8 weeks old) are obtained from Harlan Laboratories (Maison-Alfort, France). DBA/1J mice (male, 7 weeks old) were obtained from Centre d'Elevage et de Reproduction JANVIER (CERJ) (Laval, France). Rats and mice were kept on a 12 hours light/dark cycle (0700-1900). The temperature was maintained at 22° C., and food and water were provided ad libitum.
One day before the experiment, CII solution (2 mg/mL) was prepared with 0.05 M acetic acid and stored at 4° C. Just before the immunization, equal volumes of adjuvant (IFA) and CII were mixed by a homogenizer in a pre-cooled glass bottle in an ice water bath. Extra adjuvant and prolonged homogenization might be required if an emulsion is not formed.
Rat: 0.2 mL of the emulsion is injected intradermally at the base of the tail of each rat on day 1, a second booster intradermal injection (CII solution at 2 mg/mL in CFA 0.1 mL saline) is performed on day 9. This immunization method is modified from published methods (Sims N A et al., (2004) Targeting osteoclasts with zoledronic acid prevents bone destruction in collagen-induced arthritis, Arthritis Rheum. 50 2338-2346; Jou et al., 2005).
The therapeutic effects of the test compounds were tested in the rat or mouse CIA model. Animals were randomly divided into equal groups and each group contained 10 animals. All rats are immunized on day 1 and boosted on day 9. All mice were immunized on day 1 and boosted on day 21. Therapeutic dosing lasted from day 16 to day 30. The negative control group was treated with vehicle (MC 0.5%) and the positive control group with Enbrel (10 mg/kg, 3× week., s.c.). A compound of interest was typically tested at 3 doses, e.g. 3, 10, 30 mg/kg, p.o.
Arthritis was scored according the method of Khachigian 2006, Lin et al 2007 and Nishida et al. 2004). […]
The area under the curve (AUC) from day 1 to day 14 was calculated for each individual rat. The AUC of each animal was divided by the average AUC obtained for the vehicle in the study from which the data on that animal was obtained and multiplied by 100 (i.e. the AUC was expressed as a percentage of the average vehicle AUC per study).
The clinical score difference for each animal was divided by the average clinical score difference obtained for the vehicle in the study from which the data on that animal was obtained and multiplied by 100 (i.e. the difference was expressed as a percentage of the average clinical score difference for the vehicle per study).
Post-mortem, a Larsen’ score was derived for both hind paws of all rats by at least 2 scientists. The average of these scores was calculated to obtain one Larsen’ score per rat. […]

[3] = Microsomal stability, rat; format: in vitro ADME; conditions: rat liver microsomes, 3 μM compound, 1 hour, 37° C.
Protocol: as §1, §2, §3, §4, §5, §6, §7

CC1(C)CN(C(=O)c2ccc(-c3cccc4nc(NC(=O)C5CC5)nn34)cc2)C1 [Compound 1, Cyclopropanecarboxylic acid {5-[4-(3,3-dimethyl-azetidine-1-carbonyl)-phenyl]-[1,2,4]triazolo[1,5-a]pyridin-2-yl}-amide]
Microsomal stability, Human (percentage of compound remaining after 60 minutes) [1]: 76-100%
endpoint clinical score ([2]; rat CIA, from 1 mg/kg): significant improvements
paw swelling ([2]; rat CIA, from 1 mg/kg): significant improvements
AUC of the clinical score ([2]; rat CIA, from 10 mg/kg): significant improvements
Larsen' score ([2]; rat CIA, from 30 mg/kg): significant improvements
efficacy in rat CIA study readouts ([2]; rat, 30, 10, 3 and 1 mg/kg): efficacious in all readouts
Microsomal stability, Rat (percentage of compound remaining after 60 minutes) [3]: 76-100%
